Results published in patent US10314308B2, “Microbiocidal benzoxaboroles” (SYNGENTA PARTICIPATIONS AG, priority 2015, dated 2019).

Experiments:
[1] = test system: Mycosphaerella Graminicola(Septoria Tritici); assay: Mycosphaerella graminicola (Septoria tritici) / liquid culture (Septoria blotch); format: cell-based; details: Zymoseptoria tritici, PDB potato dextrose broth, 24° C., 4-5 days after application, read-out: disease control (inhibition of growth, photometrically)
Summary of the method: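 Growth inhibition measured by photometry 4-5 days post-application, at 24 °C, in liquid culture of spores taken straight from cryogenic storage into potato dextrose broth, with test compound supplied in DMSO.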

[2] = test system: Thanatephorus Cucumeris(Rhizoctonia Solani); assay: Thanatephorus cucumeris (Rhizoctonia solani) / liquid culture (foot rot, damping-off); format: cell-based; details: PDB potato dextrose broth, 24° C., 3-4 days after application, read-out: disease control (inhibition of growth, photometrically)
Summary of the method: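 Photometric growth-inhibition read 3-4 days after treatment at 24° C. Compounds applied from DMSO at 200 ppm, then fungal mycelium fragments in PDB broth added.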

Gaeumannomyces Graminis = assay: Gaeumannomyces graminis / liquid culture (take-all of cereals); format: cell-based; details: PDB potato dextrose broth, 24° C., 4-5 days after application, read-out: disease control (inhibition of growth, photometrically)
Summary of the method: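 Liquid-culture growth assay: compound delivered as DMSO solution, then fungal inoculum in potato dextrose broth added. Photometric read of growth inhibition after 4-5 days at 24° C.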

[3] = test system: Glomerella Lagenarium(Colletotrichum Ladenarium); assay: Glomerella lagenarium (Colletotrichum lagenarium) / liquid culture (anthracnose); format: cell-based; details: PDB potato dextrose broth, 24° C., 3-4 days after application, read-out: disease control (inhibition of growth, photometrically)
Summary of the method: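 Compound dissolved in DMSO was combined with potato dextrose broth carrying conidia taken directly from cryogenic storage. Photometric growth inhibition readings were taken after 3–4 days of incubation at 24 °C.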

[4] = test system: Monographella Nivalis(Microdochium Nivale); assay: Monographella nivalis (Microdochium nivale) / liquid culture (foot rot cereals); format: cell-based; details: PDB potato dextrose broth, 24° C., 4-5 days after application, read-out: disease control (inhibition of growth, photometrically)
Summary of the method: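 Growth inhibition measured photometrically after 4-5 days at 24° C. Test compound in DMSO was combined with nutrient broth (PDB) carrying conidia taken directly from cryogenic storage.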

Fusarium Culmorum = assay: microbe, parasite or virus in culture; format: cell-based; details: read-out: disease control (inhibition of growth, photometrically)
Sclerotinia Sclerotiorum = assay: Sclerotinia sclerotiorum / liquid culture (cottony rot); format: cell-based; details: PDB potato dextrose broth, 24° C., 3-4 days after application, read-out: disease control (inhibition of growth, visually)
Summary of the method: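 Growth inhibition was read by eye 3-4 days post-application at 24° C. Compounds (DMSO solution) were combined with potato dextrose broth seeded with mycelia fragments from a newly grown liquid culture.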

[5] = test system: Mycosphaerella Arachidis(Cercospora Arachidicola); assay: Mycosphaerella arachidis (Cercospora arachidicola) / liquid culture (early leaf spot); format: cell-based; details: PDB potato dextrose broth, 24° C., 4-5 days after application, read-out: disease control (inhibition of growth, photometrically)
Summary of the method: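 Growth inhibition was read photometrically 4-5 days post-application, following incubation at 24 °C. Test compounds in DMSO were combined with fungal spores from cryogenic storage suspended in potato dextrose broth.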

[6] = test system: Phaeosphaeria Nodorum (Septoria Nodorum); assay: Phaeosphaeria nodorum (Septoria nodorum) / wheat / leaf disc preventative (glume blotch); format: in vivo; details: Parastagonospora nodorum, foliar, wheat leaf segments cv Kanzler, inoculated 2 days after application, assessed 5-7 days after application, read-out: disease control
Summary of the method: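 Wheat cv Kanzler leaf discs on agar were sprayed with formulated compound, then inoculated with spores 2 days later. Incubation at 20° C, 75% RH, 12/12 h light/dark; percent disease control versus untreated assessed 5-7 days after application.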

[7] = test system: Botryotinia Fuckeliana(Botrytis Cinerea); assay: Botryotinia fuckeliana (Botrytis cinerea) / liquid culture (gray mould); format: cell-based; details: Vogels broth, 24° C., 3-4 days after application, read-out: disease control (inhibition of growth, photometrically)
Description: 9 Botryotinia Fuckeliana(Botrytis Cinerea)/Liquid Culture (Gray Mould) Conidia of the fungus from cryogenic storage were directly mixed into nutrient broth (Vogels broth). After placing a DMSO solution of test compound into a 96-well microtiter plate, the nutrient broth containing the fungal spores was added. The test plates were incubated at 24° C. and the inhibition of growth was determined photometrically 3-4 days after application.

Pythium Ultimum = assay: Pythium ultimum / liquid culture (seedling damping off); format: cell-based; details: Globisporangium ultimum, potato dextrose broth, 24° C., 2-3 days after application, read-out: disease control (inhibition of growth, photometrically)
Phytophthora Infestans = assay: whole plant or invertebrate; format: in vivo; details: in Solanum lycopersicum, foliar, read-out: disease control
[8] = test system: Puccinia Recondita f. sp. Tritici; assay: Puccinia recondita f. sp. tritici / wheat / leaf disc preventative (brown rust); format: in vivo; details: foliar, wheat leaf segments cv Kanzler, inoculated 1 day after application, assessed 7-9 days after application, read-out: disease control
Description: 3 Puccinia Recondita f. sp. Tritici/Wheat/Leaf Disc Preventative (Brown Rust) Wheat leaf segments cultivated variety (cv) Kanzler were placed on agar in 24-well plates and sprayed with formulated test compound diluted in water. The leaf disks were inoculated with a spore suspension of the fungus 1 day after application. The inoculated leaf segments were incubated at 19° C. and 75% relative humidity under a light regime of 12/12 h (light/dark) in a climate cabinet and the activity of a compound was assessed as percent disease control compared to untreated when an appropriate level of disease damage appears in untreated check leaf segments (7-9 days after application).

Plasmopara Viticola = assay: whole plant or invertebrate; format: in vivo; details: foliar, read-out: disease control

Row | SMILES | melting point [°C] | inhibition at 20 ppm [1] [%] | inhibition at 20 ppm [2] [%] | inhibition at 20 ppm (Gaeumannomyces Graminis) [%] | inhibition at 20 ppm [3] [%] | inhibition at 20 ppm [4] [%] | inhibition at 20 ppm (Fusarium Culmorum) [%] | inhibition at 20 ppm (Sclerotinia Sclerotiorum) [%] | inhibition at 20 ppm [5] [%] | pest or weed control at 200 ppm [6] [%] | inhibition at 20 ppm [7] [%] | inhibition at 20 ppm (Pythium Ultimum) [%] | pest or weed control at 200 ppm (Phytophthora Infestans) [%] | pest or weed control at 200 ppm [8] [%] | pest or weed control at 200 ppm (Plasmopara Viticola) [%]
1 | OB1OCc2cc(F)c(-c3ncon3)cc21 [Compound 97] | 226 to 228 | ≥ 80 | ≥ 80 | ≥ 80 | ≥ 80 | ≥ 80 | ≥ 80 | ≥ 80 | ≥ 80 | ≥ 80 | ≥ 80 | ≥ 80 | ≥ 80 | – | –
2 | OB1OCc2cc(F)c(-c3cnoc3)cc21 [Compound 11] | 230 to 232 | ≥ 80 | – | ≥ 80 | – | ≥ 80 | ≥ 80 | ≥ 80 | ≥ 80 | ≥ 80 | – | ≥ 80 | ≥ 80 | – | –
3 | OB1OCc2cc(F)c(-c3ncno3)cc21 [Compound 29] | 204 to 206 | ≥ 80 | ≥ 80 | ≥ 80 | ≥ 80 | ≥ 80 | ≥ 80 | ≥ 80 | ≥ 80 | ≥ 80 | ≥ 80 | ≥ 80 | ≥ 80 | – | –
4 | OB1OCc2cc(Cl)c(-c3nnco3)cc21 [Compound 94] | 202 to 204 | ≥ 80 | – | ≥ 80 | ≥ 80 | – | – | ≥ 80 | ≥ 80 | ≥ 80 | – | ≥ 80 | ≥ 80 | – | –
5 | Cc1cc(-c2cc3c(cc2F)COB3O)c(C#N)o1 [Compound 56] | – | – | ≥ 80 | ≥ 80 | – | ≥ 80 | – | – | ≥ 80 | – | – | ≥ 80 | ≥ 80 | ≥ 80 | ≥ 80
